Source: patent US9238684B2, “SPANX-B polypeptides and their use” (The United States of America, as represented by the …, priority 2009, dated 2016)
“Also recorded” adds a separate entry of the source.

Legend:
[1] = test system: SPANX-B-specific CD8^+ T cell lines; assay: IFNγ secretion (ELISA) by CD8+ T cell lines stimulated with antigen-pulsed autologous DCs; assay type: cell-based, human
OVCAR3 cells = assay: CTL 51Cr release assay on OVCAR3; assay type: cell-based, human; conditions: HLA-A2-positive, SPANX-B-negative target; FIG. 6D
Procedure: (§1) CTL assay and HLA blocking experiments: Tumor cell lines (target cells, 2×10^6) were incubated in 200 μL of fetal bovine serum (FBS) with 200 μCi of Na2^51CrO4 (PerkinElmer, Billerica, Mass.) for 2 hours at 37° C. Cells were washed with RPMI three times and resuspended in cRPMI with 10% FBS at 1×10^5 cells/mL. CTL assay was performed in triplicate in 96-well round bottom plates with 1×10^4/well ^51Cr-labeled target cells. The target cells were co-cultured at indicated ratios with effector cells (peptide-specific CD8^+ T cells) for 6 hours. The specific ^51Cr-release is calculated using formula: ((test sample release−spontaneous release)/(maximum release−spontaneous release))×100). Maximum release is for the target cells alone lysed with 2% Triton X-100.

[2] = test system: murine anti-SPANX-B antibody; assay: ELISA on peptide-coated plates with murine anti-SPANX-B antibody; assay type: binding; conditions: Ab from mice DNA immunized with SPANX-B-expressing plasmid; FIG. 1B
Procedure: FIGS. 1A-1F are digital images, a graph and a schematic diagram illustrating the specificity of antibody and expression of SPANX-B in human immortalized tumor cell lines. FIG. 1A is a digital image showing ANEA-I0117 antibody recognized SPANX-B expressed in mouse erythroleukemia RL5 cells. Western blotting results are shown with ANEA-I0117 anti-SPANX-B antibody on lysates of RL5 cells (2 μl, 5 μl and 10 μl, respectively) transiently transduced with plasmid expressing SPANX-B (SPANX-B). Control lysates were made from untransduced parental RL5 cells (Control). FIG. 1B is a graph showing murine anti-SPANX-B antibody, which was generated from mice DNA immunized with plasmid expressing SPANX-B, recognized unique SPANX-B-specific insert of SPANX-B (encoded in Pep-G1 and Pep-2 peptides), ELISA assay on plates coated with various peptides that are depicted in FIG. 1C. […] FIG. 1D is a digital image showing the expression of SPANX-B protein evaluated by Western blotting with ANEA-I0117 Ab (1:5000) in lysates of cell lines, such as HEK293 (HEK), Jurkat, CRL 7002, UACC1273, 938 Mel, CCRF-CEM (CEM), and normal human donor PBMC (upper panel). The blot was stripped and hybridized with anti-actin antibody (lower panel). FIGS. 1E and 1F are digital images obtained from an immunohistochemistry and immunofluorescent assay, respectively, of melanoma (UACC1273) and ovarian carcinoma (2008 and OVCAR3) cell lines. The cells were stained with ANEA-I0117 Ab (right and bottom panels in FIG. 1E and FIG. 1F, respectively); and control IgG (left and upper panels in FIG. 1E and FIG. 1F, respectively).
SPANX-B can be often found in the list of highly expressed genes in microarray study of human tumors, including hematological malignancies and breast cancer (see, for example, Minn et al., Nature 436(7050):518-24, 2005). To confirm this, expression was tested using two antibodies, a rabbit 3ANEA Ab and mouse SPANX-B Ab. […] The second SPANX-B Ab was produced from mice DNA immunized with SPANX-B-expressing plasmid. […] In contrast, it reacted with a second peptide Pep-2 that only represented unique for SPANX-B insert of Pep-G1 (FIGS. 1B and C).

HEK293 cells = assay: CTL 51Cr release assay on HEK293 cells pulsed with Pep-2; assay type: cell-based, human; conditions: FIGS. 6A-C
Procedure: as §1

UACC1273 melanoma cells = assay: CTL 6-hour 51Cr release assay on UACC1273; assay type: cell-based, human; conditions: SPANX-B-expressing, HLA-A2-positive target; FIGS. 6A-C
Procedure: as §1

[3] = test system: primary human melanoma cells; assay: CTL 51Cr release assay on primary human melanoma cells; assay type: cell-based
Procedure: as §1

SPANX-B = assay: DNA immunization of mice, serum ELISA on peptide-coated plates; assay type: in vivo; conditions: plates coated with peptide 5 μg/ml; FIG. 7
Procedure: Mice were intradermally immunized twice with 25 μg plasmid DNA constructs including MIP-3α-SPANX-B. Sera were tested for SPANX-B antibodies by ELISA assay in 96-well plates coated with the indicated peptides (5 μg/ml). […] The other was near the N-terminus, encoded by Pep-G1 (SEQ ID NO: 14) and Pep-2 (SEQ ID NO: 2) and Pep-3 (SEQ ID NO: 3).

[4] = test system: SPANX-B-specific CD4^+ T cell lines; assay: IFNγ secretion (ELISA) by CD4+ T cell lines stimulated with antigen-pulsed autologous DCs; assay type: cell-based, human; conditions: autologous DCs pulsed with peptide; lines generated to SPANX-B protein, Pep-1 or Pep-G1; FIG. 3D
Procedure: T cell stimulation: To generate CD4^+ T cell lines, CD4^+ T cells (2×10^6) were stimulated with autologous DC pulsed with either SPANX-B protein (2 μg/mL), or with SPANX-B peptides (10 μg/mL) in the presence of IL-2 (20 U/mL) for seven days. T cells were re-stimulated once every week two times. To generate CD8^+ CTL lines, 2×10^6 CD8^+ T cells were stimulated with autologous DC pulsed with either SPANX-B protein (2 μg/mL) and SPANX-B peptides (10 μg/mL) in the presence of IL-2 (20 U/mL) and IL-15 (10 ng/mL) for seven days. T cells were weekly restimulated with peptide-loaded DCs for several times. To test antigen-specific activity of CD4^+ T cell lines, all experiments were performed in triplicates in 96-well plates with 1×10^5 CD4^+ T cells/well. […] T cell activity was judged by IFNγ secretion in culture supernatants by ELISA after 48 hours incubation (see below and Schiavo et al., Blood 107(12):4597-605, 2006). For most experiments, unless specified, 1:5 Target:Effector ratio was used.
Detection of IFNγ by ELISA: ELISA was performed as described elsewhere (Schiavo et al., Blood 107(12):4597-605, 2006). Briefly, 96-well flat-bottom plates were coated with 2 μg/mL of anti-human IFNγ antibody (BD pharmingen, San Jose, Calif.) to capture secreted IFNγ. The captured IFNγ was detected with 0.5 μg/mL biotin-conjugated mouse anti-human IFNγ antibody and streptavidin-HRP (BD pharmingen, San Jose, Calif.). The assay was visualized with TMB peroxidase solution B (KPL, Gaithersburg, Md.) and read at OD450.

HLA-DR = assay: HLA blocking of Pep-9-induced CD4+ T cell activation; assay type: cell-based, human
Procedure: The MHC […] inhibition assays: HLA specific mAbs or control isotype matched IgG were preincubated with peptide-pulsed DCs at concentration of 10 μg/mL for one hour at 4° C. Cells were washed with PBS, irradiated at 4500 rad and mixed with T cells at indicated ratios. To block HLA class I expression, tumor cells lines were pretreated with 10 μg/mL of anti-HLA-A,B,C antibodies (BD Pharmingen, San Jose, Calif.) for one hour at 4° C. Cells were washed with PBS and labeled with ^51Cr as indicated above. IFNγ production was determined by ELISA after 48 hour incubation as described (Schiavo et al., Blood 107(12):4597-605, 2006).
Next, to characterize HLA specificity, the CD4^+ T cell lines were stimulated with autologous DCs pulsed with Pep-9 in the presence of antibody that blocked HLA-DR, or HLA-DQ, or HLA-DP molecules. The stimulation of the SPANX-B-specific CD4^+ T cells was not affected by the presence of control antibody or antibodies that block HLA-DQ, or HLA-DP, or anti-MHC class I (FIGS. 4 A-C).

Row | Sequence | recognition of SPANX-B protein-pretreated DCs by CD8+ T cells generated with peptide-pulsed DCs [1] | IFNγ secretion by SPANX-B-specific CD8+ T cells on stimulation with pulsed DCs ([1]; irradiated autologous DCs, lines generated with SPANX-B protein, FIG. 5A) | lysis of OVCAR3 cells by CD8+ T cells, with or without Pep-2 pulsing (OVCAR3 cells) | recognition of peptide by mouse SPANX-B Ab (ELISA) [2] | lysis of HLA-A2-expressing HEK293 cells pulsed with Pep-2 by CD8+ T cell lines generated to the antigen (HEK293 cells; HEK-A2, pulsed with 1 μg/ml Pep-2) | lysis of HLA-A2-negative parental HEK293 cells by CD8+ T cell lines generated to the antigen (HEK293 cells; HEK) | lysis of UACC1273 melanoma cells by CD8+ T cell lines generated to the antigen (UACC1273 melanoma cells) | lysis of HLA-A2-expressing primary melanoma tumors by CD8+ lines generated to the antigen ([3]; Tc526, Tc624 and Tc2492) | lysis of HLA-A2-negative primary melanoma tumors by CD8+ lines generated to the antigen ([3]; Tc2547 and Tc938, FIG. 6E) | B cell epitope recognized by sera of immunized mice (ELISA) (SPANX-B) | IFNγ secretion by SPANX-B-specific CD4+ T cell lines, fine mapping of the epitope [4] | HLA restriction of recognition by human CD4+ T cells (HLA-DR)
1 | EANEANKTM (Synthetic peptide Pep-2) | also recognized SPANX-B protein-pretreated DCs | secreted IFNγ | could not lyse HLA-A2-positive OVCAR3 cells that did not express SPANX-B, unless pulsed with Pep-2 | but not other region-specific peptides; also recorded: reacted with | lysed HLA-A2-expressing HEK293 cells that were pulsed with Pep-2 | did not kill | killed UACC1273 melanoma cells | recognized and lysed | not affected | Immunodominant B cell epitopes |  | 
2 | RSVPCESNEANE (Synthetic peptide Pep-9) |  |  |  |  |  |  |  |  |  |  | able to activate the SPANX-B-specific CD4^+ T cell lines | HLA-DR-restricted fashion
